One data set has as its system S. aureus. As to the kind of experiment: Antibacterial activity against S. aureus, (strains together or not specified). Type of data set: cell-based, Staphylococcus aureus. The protocol:
(§1) Different S. aureus strains described above were first pre-cultured aerobically at 37°C for 20 h in a Mueller-Hinton-Broth (MHB) medium, pH 7.3 (Difco Laboratories, Detroit, MI). Bacteria were suspended at absorbance of 0.001 at 620 nm in the MHB medium. […] Ten µl final volumes (10–200 µg/mL) of synthetic peptides (LL-37, bCAT, hCAT and bCTL) were incubated in microtitration plates with 90 µl of a mid-logarithmic phase culture of bacteria, with a starting absorbance of 0.001 at 620 nm. In the initial inoculi, bacteria were quantified by the agar plate spreading method which was 5×10^5 colony forming units (CFU)/mL. Tetracycline (10 mg/L) and Cefotaxime (0.1 mg/L) were used as positive controls. Microbial growth was assessed by the increase of absorbance after 24 h incubation at 37°C., [29] The A620 nm value of control cultures growing in the absence of peptide and antibiotics was defined as 100% growth. A620 nm zero with the antibiotics (Tetracycline and Cefotaxime) was taken as 100% inhibition. Absence of bacterial growth was verified by agar plate spreading. Each assay was performed in triplicates.

Another data set concerns S. aureus S1. As to the kind of experiment: Antibiotic susceptibility, agar disc diffusion. Type of data set: cell-based, Staphylococcus aureus. As to conditions: agar disc diffusion method. The protocol: (§2) S1 was isolated from the blood of a patient and S2 was isolated from the sputum of a neonate. After isolation and identification, S. aureus strains were assessed for their susceptibility to various antibiotics, using the agar disc diffusion method. S1 was found Methicillin resistant (MRSA) and is also resistant to Amoxicillin, Oxacillin, Amikacin, Tobramycin, Fluoroquinolones, Erythromycin and Clindamycin. However, it was susceptible to Gentamicin, Synercid, Co-trimoxazole, Rifampicin, Fusidic acid, Vancomycin, Teicoplanin and Linezolid.

Data set [1] in a line: S. aureus S1 (MRSA) culture supernatant, MHB medium, filtered. The following applies: 37°C, up to 24 h.
Data set [2] can be described thus: S. aureus S2 (MSSA) culture supernatant, MHB medium, filtered. The following applies: 37°C, up to 24 h.
A short description of data set [3]: S. aureus S1 culture supernatant with protease inhibitors (Pi+S1). The following applies: S. aureus S1 (MRSA), 37°C, up to 24 h.
A short description of data set [4]: S. aureus S2 culture supernatant with protease inhibitors (Pi+S2). The following applies: S. aureus S2 (MSSA), 37°C, up to 24 h.
A short description of data set [5]: S. aureus ATCC25923 culture supernatant (S25923), MHB medium, filtered. As to conditions: S. aureus ATCC25923, 37°C, up to 24 h.
The nature of data set [6]: S. aureus ATCC49775 culture supernatant (S49775), MHB medium, filtered. As to conditions: S. aureus ATCC49775, 37°C, up to 24 h.
Data set [7] can be described thus: S. aureus ATCC25923 culture supernatant with protease inhibitors (Pi+S25923). As to conditions: S. aureus ATCC25923, 37°C, up to 24 h.
Data set [8] in a line: S. aureus ATCC49775 culture supernatant with protease inhibitors (Pi+S49775). The following applies: S. aureus ATCC49775, 37°C, up to 24 h.
The subject of the next data set is S. aureus S2. Description: Antibiotic susceptibility, agar disc diffusion. Type of data set: cell-based, Staphylococcus aureus. The following applies: agar disc diffusion method. The protocol:
as §2

A further data set can be described thus: MHB medium. As to conditions: 37°C, up to 24 h.
The subject of a further data set is S. aureus ATCC25923. It is filed as cell-based, Staphylococcus aureus. As to conditions: ATCC25923, 24 h, pH 7.3. The protocol:
as §1
(§3) The MIC values (µg/mL) are reported as means of three independent experiments. To determine significance, between different peptides (rows) and bacterial strains (columns), one way ANOVA was used. Overall significance and correlation was evaluated by 4×4 factorial ANOVA for independent samples. Significance was accepted at p≤0.05.

In a further data set the test system is S. aureus ATCC49775. Type of data set: cell-based, Staphylococcus aureus. The following applies: ATCC49775, 24 h, pH 7.3. The protocol: as §1, §3
The next data set deals with S. aureus S1 (MRSA). It is filed as cell-based, Staphylococcus aureus. The following applies: S1, 24 h, pH 7.3. The protocol: as §2, §1, §3
A further data set deals with S. aureus S2 (MSSA). It is filed as cell-based, Staphylococcus aureus. As to conditions: S2, 24 h, pH 7.3. The protocol:
as §2, §1, §3

The test system of data set [9] is staphylococcal proteases released into bacterial supernatants. As to conditions: 37°C, 24 h; for degradation by culture supernatant of S2 / degradation by culture supernatants S49775, S25923 and S1: peptide at MIC concentration, no protease inhibitors, RP-HPLC 214 nm, sequencing, MALDI-TOF, triplicate wells.
Experimental: S. aureus strains were precultured and plated on the agar plates and cultivated for 24 h at 37°C. After incubation, one colony per isolate was transferred to 10 mL of the MHB medium and incubated at 37°C for about 30 h to late stationary growth phase. After incubation, cultures were centrifuged at 10,000×g for 15 min and supernatants were filtered using a 0.22 µM Millex®-GV (Millipore, Carrigtwohill, Ireland) to eliminate bacteria. The supernatants were stored at −20°C until further use. In order to check sterility, 1 mL of each supernatant was incubated at 37°C for 48 h. Absence of a colony was interpreted as lack of viable bacteria.
(§4) Triplicate wells were treated for each concentration of peptide. In parallel, several controls were performed: with and without peptides in MHB medium.
For which, protease inhibitor cocktail (complete protease inhibitors except metalloproteases) (Roche Diagnostic GmbH, Mannheim, Germany) supplemented with 100 µM of 1–10 phenanthroline (metalloprotease inhibitor) (Sigma Aldrich GmbH, Steinheim, Germany) was added to bacterial supernatants before the addition of synthetic peptides. The whole suspension was incubated at 37°C for 24 h prior to being analyzed by RP-HPLC.
(§5) The synthetic peptides treated with bacterial supernatants and different controls including culture medium, bacterial supernatants, and synthetic peptides were separated using a Dionex HPLC system (Ultimate 3000; Sunnyvale, CA USA) on a Nucleosil reverse-phase 300–5C18-column (4×250 mm; particle size, 5 µm; porosity, 300 Å) (Macherey Nagel Hoerdt, France). Absorbance was monitored at 214 nm, and the solvent system consisted of 0.1% (v/v) TFA in water (solvent A) and 0.09% (v/v) TFA in 70% (v/v) acetonitrile-water (solvent B). Elution was performed at a flow rate of 700 µL/min, with the gradient as indicated on chromatograms. Fractions were collected with one min time interval. They were subsequently concentrated by evaporation by using a speed-vac, however not allowing them to dry completely.
The N-terminal sequence of purified peptides was determined by automatic Edman degradation analysis on a Procise microsequencer (Applied Biosystems, Courtaboeuf, France). Samples purified by HPLC were loaded on polybrene-treated glass-fiber filters. Phenylthiohydantoin-amino acids (Pth-Xaa) were identified by chromatography on a C18 column (PTH C-18, 2.1 mm×200 mm).
Mass determination was carried out on a Brucker BIFLEX™ Matrix-Assisted Laser Desorption Ionization – Time-Of-Flight mass spectrometer (MALDI-TOF) (equipped with the high resolution optics (SCOUT™) with X–Y multi-sample probe, a gridless reflector and with the HIMAS™ linear detector). With a maximum accelerating potential of 30 kV, the system can be operated either in linear or the reflective mode. Ionization was carried out with a 337-nm beam from a nitrogen laser with a repetition rate of 3 Hz. The output signal from the detector was digitized at a sampling rate of 250 MHz in linear mode and 500 MHz in reflector mode using a 1 GHz digital oscilloscope (Lecroy model). Brucker supplied software hosted in Sun sparcworkstation was used for data processing and the instrumental control. […] These studies were realized using the matrix α-cyano-4-hydroxycinnamic acid, obtained from Sigma, and prepared as a saturated solution in acetone. A total of 1–2 µl of the sample matrix aliquot solution was deposited on the probe and dried by ambient air. A thin layer matrix crystal was obtained after rapid spreading and evaporation. […] A micromolar analyte solution was applied to the matrix and allowed to dry under moderate vacuum. The whole preparation was washed by 1 μl of trifluoroacetic acid (0.5%) aqueous solution. This cleaning procedure helps remove remaining alkaline cations and often leads to an increase in sensitivity.
For data set [10] the following is noted: MHB medium without supernatant, 37°C, 24 h; RP-HPLC.
Experimental: as §4, §5

Here are results for 21 compounds from paper PMC3722296 (PLoS ONE, 2013).

“Also recorded” adds a separate entry of the source. Where no end group is shown, it is not given here.

As to “FLE-RSMRLSFRARGYGFR [FLE-CTL, CTL derived peptide with a hydrophobic N-terminal end]”, the “antibacterial activity against S. aureus” value in the data set with S. aureus (at 400 µg/mL, recent experiments) was “inactive”.
As for `CN[C@H](CC(C)C)C(=O)N[C@H]1C(=O)N[C@@H](CC(N)=O)C(=O)N[C@H]2C(=O)N[C@H]3C(=O)N[C@H](C(=O)N[C@H](C(=O)O)c4cc(O)cc(O)c4-c4cc3ccc4O)[C@H](O)c3ccc(c(Cl)c3)Oc3cc2cc(c3O[C@@H]2O[C@H](CO)[C@@H](O)[C@H](O)[C@H]2O[C@H]2C[C@](C)(N)[C@H](O)[C@H](C)O2)Oc2ccc(cc2Cl)[C@H]1O` [Vancomycin], the “susceptibility of strain S1” value with S. aureus S1 is “susceptible”.
As for RSMRLSFRARGYGFR, the not cleaved entry is recorded as “not degraded by any of the staphylococcal strains tested” in data set [1]; “not degraded by any of the staphylococcal strains tested” in [2]; “remains unaffected by S. aureus supernatants with or without protease inhibitors” in data set [3]; “remains unaffected by S. aureus supernatants with or without protease inhibitors” in [4]; “not degraded by any of the staphylococcal strains tested” in [5]; “not degraded by any of the staphylococcal strains tested” in [6]. Further, the not cleaved entry in [7] and in data set [8] was “remains unaffected by S. aureus supernatants with or without protease inhibitors” in each case.
For `NCC[C@H](O)C(=O)N[C@@H]1C[C@H](N)[C@@H](O[C@H]2O[C@H](CN)[C@@H](O)[C@H](O)[C@H]2O)[C@H](O)[C@H]1O[C@H]1O[C@H](CO)[C@@H](O)[C@H](N)[C@H]1O` [Amikacin], the “susceptibility of strain S1” value in the data set with S. aureus S1 was “resistant”.
Take `COc1cccc(OC)c1C(=O)N[C@@H]1C(=O)N2[C@@H]1SC(C)(C)[C@@H]2C(=O)O` [Methicillin]: in the data set on S. aureus S1, the “susceptibility of strain S1” value is given as “resistant”. The “susceptibility of strain S2” value in the data set on S. aureus S2 is given as “susceptible”.
Take Teicoplanin: the “susceptibility of strain S1” value in the data set on S. aureus S1 is listed as “susceptible”.
On to SSMKLSFRARGYGFRGPGPQL, for which the not cleaved result in the data set “MHB medium” was “In presence of MHB medium, hCAT was not cleaved”. For the same compound, the cleaved bond entry in [1] was “L356-S357”; in data set [2], “G364-F365; also recorded: S357-F358”; in [5], “L356-S357”; in [6] it was “L356-S357”.
Consider `CC1(C)S[C@@H]2[C@H](NC(=O)[C@H](N)c3ccc(O)cc3)C(=O)N2[C@H]1C(=O)O` [Amoxicillin], for which, in the data set with S. aureus S1, the “susceptibility of strain S1” value was “resistant”.
In the case of RSMRLSFRARGYGFRGPGLQL, the not cleaved entry was “In MHB medium, bCAT was not processed” in “MHB medium”; “not cleaved by any of the four strain supernatants tested in presence of protease inhibitors” in data set [3]; “not cleaved by any of the four strain supernatants tested in presence of protease inhibitors” in [4]; “not cleaved by any of the four strain supernatants tested in presence of protease inhibitors” in [7]; “not cleaved by any of the four strain supernatants tested in presence of protease inhibitors” in [8]. Besides, the cleaved bond result is recorded as “L348-S349” in data set [1], “S349-F350; also recorded: G356-F357” in [2], “L348-S349” in data set [5] and “L348-S349” in data set [6].
As for `CC(=O)NC[C@H]1CN(c2ccc(N3CCOCC3)c(F)c2)C(=O)O1` [Linezolid], in the data set with S. aureus S1, the “susceptibility of strain S1” value is on record as “susceptible”.
Same read-out and setting: the value for `NC[C@H]1O[C@H](O[C@H]2[C@H](O)[C@@H](O[C@H]3O[C@H](CO)[C@@H](O)[C@H](N)[C@H]3O)[C@H](N)C[C@@H]2N)[C@H](N)C[C@@H]1O` [Tobramycin] was “resistant”.
Still for that read-out and setting: then `Cc1onc(-c2ccccc2)c1C(=O)N[C@@H]1C(=O)N2[C@@H]1SC(C)(C)[C@@H]2C(=O)O` [Oxacillin], with “resistant”; and `CO[C@H]1/C=C/O[C@@]2(C)Oc3c(C)c(O)c4c(O)c(c(/C=N/N5CCN(C)CC5)c(O)c4c3C2=O)NC(=O)/C(C)=C\C=C\[C@H](C)[C@H](O)[C@@H](C)[C@@H](O)[C@@H](C)[C@H](OC(C)=O)[C@@H]1C` [Rifampicin], with “susceptible”.
A word on the MIC: it is the lowest concentration that inhibits growth of the organism. Read a high MIC as a need for much substance. Consider “SSMKLSFRARAYGFRGPGPQL [hCAT, catestatin]”, for which the MIC is 135 µg/mL against S. aureus ATCC25923, 125 µg/mL with S. aureus ATCC49775, 130 µg/mL in the data set on S. aureus S1 (MRSA) and 150 µg/mL with S. aureus S2 (MSSA). Besides, the “degradation by culture supernatant of S2” value in data set [9] was “completely cleaved”. In addition, the “degradation by culture supernatants S49775, S25923 and S1” value in data set [9] is listed as “partially processed”. In addition, in data set [10], the “processing in MHB medium” value is “not cleaved”.
In the case of `CC(=O)O[C@H]1C[C@@]2(C)[C@@H](C[C@@H](O)[C@H]3[C@@]4(C)CC[C@@H](O)[C@@H](C)[C@@H]4CC[C@@]32C)/C1=C(\CCC=C(C)C)C(=O)O` [Fusidic acid], in the data set on S. aureus S1, the “susceptibility of strain S1” value is “susceptible”.
Still for that read-out and setting: the value for Co-trimoxazole was “susceptible”.
Take “FLE-RSMRLSFRARG [shorter peptide lacking the C-terminal end (YGFR) of CTL]”: the “concentration at which antibacterial activities are displayed” value in the data set on S. aureus (data not shown) is recorded as 200 µg/mL.
In the case of `CCC[C@@H]1C[C@@H](C(=O)N[C@@H]([C@H]2O[C@H](SC)[C@H](O)[C@@H](O)[C@H]2O)[C@H](C)Cl)N(C)C1` [Clindamycin], the “susceptibility of strain S1” value with S. aureus S1 is “resistant”.
Turning to “RSMRLSFRARGYGFRGPGLQL [bCAT, catestatin]”, the MIC against S. aureus ATCC25923 stood at 100 µg/mL; in the data set with S. aureus ATCC49775 it was 100 µg/mL; in the data set on S. aureus S1 (MRSA), 100 µg/mL; against S. aureus S2 (MSSA), 115 µg/mL. The “degradation by culture supernatant of S2” value in [9] was “largely cleaved”. The “degradation by culture supernatants S49775, S25923 and S1” value in data set [9] is “processed”. The “degradation by four strain supernatants in presence of protease inhibitors” value in data set [9] (protease inhibitor cocktail + 100 µM 1–10 phenanthroline, RP-HPLC) is on record as “not cleaved”. Also, the “processing in MHB medium” value in [10] is on record as “not processed”.
For `CC[C@H]1OC(=O)[C@H](C)[C@@H](O[C@H]2C[C@@](C)(OC)[C@@H](O)[C@H](C)O2)[C@H](C)[C@@H](O[C@@H]2O[C@H](C)C[C@H](N(C)C)[C@H]2O)[C@](C)(O)C[C@@H](C)C(=O)[C@H](C)[C@@H](O)[C@]1(C)O` [Erythromycin], the “susceptibility of strain S1” value in the data set on S. aureus S1 is “resistant”.
On the same count and under the same terms, then `CNC(C)C1CCC(N)C(OC2C(N)CC(N)C(OC3OCC(C)(O)C(NC)C3O)C2O)O1` (stereo not drawn) [Gentamicin], with “susceptible”.
